From US6512000B1, “Aminocarbonyl-substituted benzimidazoles having tryptase-inhibitory activity” (Boehringer Ingelheim Pharma KG, priority 1999, dated 2003)

biological target: T1, rh beta tryptase (Homo sapiens, UniProt P20231); test: Tryptase inhibition test (cleavage of N-p-tosyl-Gly-Pro-Lys-para-nitroaniline, p-nitroaniline measured at 405 nm); assay type: biochemical; conditions: concentration at which 50% of the tryptase enzyme activity is inhibited; substrate 0.6 mM, pH 7.4, 37° C.
T1 construct: purchased Promega
T1 sequence (P20231 31-275): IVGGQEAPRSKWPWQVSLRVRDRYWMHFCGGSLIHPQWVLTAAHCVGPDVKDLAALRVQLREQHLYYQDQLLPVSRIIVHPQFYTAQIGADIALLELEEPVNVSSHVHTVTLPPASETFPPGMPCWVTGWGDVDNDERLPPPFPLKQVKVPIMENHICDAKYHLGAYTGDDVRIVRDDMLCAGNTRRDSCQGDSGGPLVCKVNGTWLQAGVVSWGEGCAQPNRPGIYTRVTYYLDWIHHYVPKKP
How it was run: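 Recombinant human beta tryptase (0.91 U/ml) in 100 mM Tris HCl pH 7.4 with 5 mM calcium and 100 mg/ml heparin; compounds pre-incubated 5 min, then 0.6 mM tosyl-Gly-Pro-Lys-pNA added, 5 min at 37 °C. p-Nitroaniline read at 405 nm; % inhibition at 10 μM, IC50 determined when inhibition exceeded 70%.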

`CCOCCCn1c(CCc2ccc(C(=N)N)cc2)nc2cc(C(=O)N(Cc3ccccc3)Cc3ccc(CN)cc3)ccc21` [Example 102, 2-[2-(4-amidinophenyl)ethyl]-1-(3-ethoxypropyl)-benzimidazol-5-yl-carboxylic acid-N-[4-(amino-methyl)-benzyl]-N-benzyl-amide] was tested. Which IC50 did it give?
Its IC50 is 0.369 µM.

same assay, conditions: inhibition of rh beta tryptase at 10 μM test substance; substrate N-p-tosyl-Gly-Pro-Lys-para-nitroaniline 0.6 mM, pH 7.4, 37° C., 5 minutes

For `CCCCN(Cc1ccc(CN)cc1)C(=O)c1ccc2c(c1)nc(CCc1ccc(C(=N)N)cc1)n2CCCNC(=O)Cc1ccccc1` [Example 88], which “% Inhibition (10 μM)” value is on record?
The value was 70%.

For `CCCCN(Cc1ccc(CN)cc1)C(=O)c1ccc2c(c1)nc(CCc1ccc(C(=N)N)cc1)n2CC1CC1` [Example 90, 2-[2-(4-amidinophenyl)ethyl]-1-cyclopropylmethyl-benzimidazol-5-yl-carboxylic acid-N-[4-(amino-methyl)-benzyl]-N-n-butyl-amide], which inhibition at 10 µM is on record?
Its inhibition at 10 µM is 67%.

`CCCCN(Cc1ccc(CN)cc1)C(=O)c1ccc2c(c1)nc(CCc1ccc(C(=N)N)cc1)n2CCc1ccccc1` [Example 91, 2-[2-(4-amidinophenyl)ethyl]-1-(2-phenylethyl)-benzimidazol-5-yl-carboxylic acid-N-[4-(amino-methyl)-benzyl]-N-n-butyl-amide] was tested. Which inhibition at 10 µM did it give?
Its inhibition at 10 µM is 62%.

How did the inhibition at 10 µM turn out when `CCCCN(Cc1ccc(CN)cc1)C(=O)c1ccc2c(c1)nc(CCc1ccc(C(=N)N)cc1)n2Cc1ccc(C)cc1` [Example 93, 2-[2-(4-amidinophenyl)ethyl]-1-(4-methylbenzyl)-benzimidazol-5-yl-carboxylic acid-N-[4-(amino-methyl)-benzyl]-N-n-butyl-amide] was run?
The inhibition at 10 µM was 56%.

With `CCCCN(Cc1ccc(CN)cc1)C(=O)c1ccc2c(c1)nc(CCc1ccc(C(=N)N)cc1)n2CCCN1CCN(c2ccccc2C)CC1` [Example 96, 2-[2-(4-amidinophenyl)ethyl]-1-{3-[4-(2-methylphenyl)-piperazin-1-yl]-propyl}-benzimidazol-5-yl-carboxylic acid-N-[4-(amino-methyl)-benzyl]-N-n-butyl-amide] as the compound, how does the inhibition at 10 µM read?
The inhibition at 10 µM was 55%.

How did the inhibition at 10 µM turn out when `CCCCN(Cc1ccc(CN)cc1)C(=O)c1ccc2c(c1)nc(CCc1ccc(C(=N)N)cc1)n2CCCN1CCOCC1` [Example 97, 2-[2-(4-amidinophenyl)ethyl]-1-[3-(morpholin-4-yl)-propyl]-benzimidazol-5-yl-carboxylic acid-N-[4-(amino-methyl)-benzyl]-N-n-butyl-amide] was run?
Its inhibition at 10 µM is 56%.

With `CCCCN(Cc1ccc(CN)cc1)C(=O)c1ccc2c(c1)nc(CCc1ccc(C(=N)N)cc1)n2CC1CCCO1` (centres unmarked) [Example 98, 2-[2-(4-amidinophenyl)ethyl]-1-(tetrahydrofuran-2-yl-methyl)-benzimidazol-5-yl-carboxylic acid-N-[4-(amino-methyl)-benzyl]-N-n-butyl-amide] as the compound, how does the inhibition at 10 µM read?
Its inhibition at 10 µM is 67%.

For `CCCCN(Cc1ccc(CN)cc1)C(=O)c1ccc2c(c1)nc(CCc1ccc(C(=N)N)cc1)n2Cc1cccs1` [Example 99, 2-[2-(4-amidinophenyl)ethyl]-1-(2-thiophenyl-methyl)-benzimidazol-5-yl-carboxylic acid-N-[4-(amino-methyl)-benzyl]-N-n-butyl-amide], which inhibition at 10 µM is on record?
The inhibition at 10 µM was 58%.

`CCCCN(Cc1ccc(CN)cc1)C(=O)c1ccc2c(c1)nc(CCc1ccc(C(=N)N)cc1)n2Cc1ccc2c(c1)OCO2` [Example 100, 2-[2-(4-amidinophenyl)ethyl]-1-(1,3-benzodioxol-5-yl-methyl)-benzimidazol-5-yl-carboxylic acid-N-[4-(amino-methyl)-benzyl]-N-n-butyl-amide] was tested. Which inhibition at 10 µM did it give?
The inhibition at 10 µM was 67%.

Which inhibition at 10 µM does the source give for `CCCCN(CCCC)CCCn1c(CCc2ccc(C(=N)N)cc2)nc2cc(C(=O)N(Cc3ccccc3)Cc3ccc(CN)cc3)ccc21` [Example 103, 2-[2-(4-amidinophenyl)ethyl]-1-(3-di-n-butylaminopropyl)-benzimidazol-5-yl-carboxylic acid-N-[4-(amino-methyl)-benzyl]-N-benzyl-amide] here?
Its inhibition at 10 µM is 60%.
